# Patent publication US10336788B2, “Inhibition of cardiac fibrosis in myocardial infarction” (Moerae Matrix, Inc., priority 2014, dated 2019)
# No end group written: not given here.
# Tested on: MK2
# Assay: Immunoblot analysis of MK2 activity (HNRNPA0, total MK2, p-MK2) in HL1 cells
# Type: cell-based, mouse
# Procedure: Cells were rinsed in PMS and grown in DMEM (cat. #11966-025, Gibco) for 2 hours prior to initiating hypoxia (simulated ischemia). Hypoxia was induced by placing cells in a hypoxia chamber ([…] 150i, Thermo Scientific) in a mixture of 5% CO2/95% N2 to attain a 1% oxygen concentration, according to the manufacturer's instruction. […] The MMI-0100 peptide was added to the cells at the start of the ischemia time. Cells were cultured in 12 well plates. At the time of performing the experiments, all cultures were approximately 70-90% confluent. Three different time points were adopted for each of the three cell lines according to the severity of cell death under hypoxia determined by LDH release: for H9C2 cell line: 8 hr; 16 hr; 24 hr; for HL-1 cell line: 4 hr; 8 hr; 12 hr; for cardiac fibroblast cell line: 16 hr; 32 hr; 48 hr.
# The left over cell lysates from the Caspase activity assay were used for the Western blots. […] After blocking with recommended blocking reagents for 1 h at the room temperature, the membranes were incubated overnight at 4° C. with primary antibodies in TBS-T, and then incubated with secondary antibodies conjugated with HRP in TBS-T. HNRNPA0, MAPK2, and phospho-MAPK2 proteins were detected using anti-HNRNPA0 (cat. #HPA036569, 1:1000, Sigma-Aldrich), anti-MAPKAPK2 (cat. #SAB4300553, Sigma-Aldrich), and anti-phospho-MAPKAPK2 (cat. #SAB4300241, 1:1000, Sigma-Aldrich). […]
sequence,measurement,setting,value
YARAAARQARAKALARQLGVAA [MMI-0100],HNRNPA0 protein expression,"100 μM, 4 and 8 hours after induction by hypoxia",inhibited
same,total MK2 and p-MK2 protein levels,"20 or 100 μM, 1% hypoxia",not changed
